In US20230277491A1, “PHARMACEUTICAL COMBINATION COMPRISING GLYCOLIC ACID AND L-ALANINE” (priority 2020, published 2023):

Experiments:
PARK-7 −/− HeLa cells = assay: Cell growth of PARK-7 −/− HeLa cells; format: cell-based, human; conditions: 5 mM, FIG. 16
Protocol: GA enhances cell proliferation in PARK-7 −/− HeLa cells. […] Knocking-down PARK-7 with CRISP/Cas-9 leads to a reduced cell proliferation when compared to WT cells. […] Treatment with GA increases cell proliferation in HeLa cells.
Cell growth was determined by two different methods. The first method (WST1-Assay) was used to analyze cell growth at different time points using the same plates: 500 cells of 8 different PARK7 KO clones and HeLa Kyoto wild type cells were seeded in 96 well plates (6 wells/line). For each time point (0 h, 48 h, 122 h, and 144 h), WST1 was added to the cells according to the manufacturers instructions and incubated for 30 min at 37° C. Absorbance was measured at 450 nm and 620 nm using an EnVision Plate Reader (PerkinElmer).
The second method was used to analyze the rescue effect of GA and DL. Briefly, HeLa cells were seeded and treated with medium containing distilled water, 5 mM GA, or 5 mM DL. 48 hours later, the number of living cells was calculated with the help of an automated cell counter (ThermoFischer, USA).
HeLa-Kyoto PARK7 KO clones had been kindly provided by Martin Stewart (Koch Institute, MIT, Cambridge, USA). Briefly, cells were electroporated with the NEON device (Invitrogen) using a sgRNA-Cas9-NLS complex targeting human PARK7 at exon 1. […]

[1] = system: DJ-1 RNAi depleted HeLa cells; conditions: DJ-1 RNAi depleted HeLa cells or paraquat challenge; cited from earlier work
HeLa cells = assay: Intracellular calcium, Fluo4-AM loaded HeLa cells, fluorescent plate reader; format: cell-based; conditions: FIG. 12
Source text: HeLa cells were loaded with Fluo4-AM and fluorescence was monitored with the help of a fluorescent plate reader. Values are normalized to the initial fluorescent value.

dopaminergic neurons = assay: Survival of dopaminergic neurons with paraquat 12.5 μM challenge (Example 5, FIGS. 19, 20); format: cell-based, mouse; conditions: for number of TH positive neurons normalized to the control treatment: FIG. 19
Protocol: Dopaminergic neurons were isolated and plated at a concentration of 1.000.000 cells/ml (100 μl/well) in a 96 well plate and cultured in medium with one or more of the various factors indicated, as described in the examples below. The survival of dopaminergic neurons in the presence and absence of various agents of the invention, either with or without paraquat challenge, is shown by the number of TH positive neurons normalized to the control treatment.
Dopaminergic neurons were isolated and plated at a concentration of 1.000.000 cells/ml (100 μl/well) in a 96 well plate. After 3-4 hours incubation at 37° C., 20 μl of medium was removed from each well. (VF=80 μl). Changes in medium and start point of the treatment were on the following day in vitro (DIV). The following protocol was employed to assess the survival of dopaminergic neurons in the presence and absence of various agents of the inventive combination, either with or without paraquat challenge. • DIV.1: Change half of medium N2 (40 μl) with fresh medium N2. • DIV.3: Change half of the medium and start with medium (control) or with medium A containing PB (0.15 mM) and TUDCA (0.5 mM), or with Medium A containing GA (normally 1 mM, 3 mM, or 10 mM) or with Medium A containing GA (1 mM or 3 mM) and PB (0.15 mM) or with Medium A containing GA (5 mM) and TUDCA (0.5 mM) or with Medium A containing PB (0.15 mM). Medium A is N2 medium but without FBS and N2-Supplement. • DIV.5: Second round of control or treatment with different treatments. Half of the medium (40 μl) was replaced by fresh medium A with the different agents. • DIV.7: Paraquat 12.5 μM treatment starts alone or in combination with the treatments explained above. Half of the medium (40 μl) was replaced by fresh medium A with the different treatment combinations or without (control). • DIV.9: Second day of treatment with Paraquat (PQ) 12.5 μM in addition to the other treatments as explained above. • DIV.11: Fixation 2% of PFA during 20 min at 37° C. or overnight at 4° C.
The effect of the different treatments on dopaminergic neurons survival upon exposure to paraquat was assessed through of TH+ neurons after treatment. Briefly, neurons were fixed using 2% paraformaldehyde for immunocytochemical analysis after treatment. Dopaminergic TH^+ neurons per well were identified and counted using an inverted fluorescence microscope (Olympus) under a 20× objective.

O=C(O)CO [GA, 2-hydroxyethanoic acid]
cell proliferation (number of cells after 48 hours) (PARK-7 −/− HeLa cells): rescues cell proliferation defects | mitochondrial potential [1]: maintain or rescue mitochondrial potential | intracellular calcium (Fluo4-AM fluorescence normalized to initial value) (HeLa cells): reduce intracellular calcium | number of TH positive neurons normalized to the control treatment (dopaminergic neurons; PQ 12.5 μM + 1 mM GA): 0.65 | number of TH positive neurons normalized to the control treatment (dopaminergic neurons; PQ 12.5 μM + 3 mM GA): 0.71 | survival of dopaminergic neurons (rescue) (dopaminergic neurons; PQ 12.5 μM + 5 mM GA alone): certain rescue
